Assay results as given in patent US4661297A, “Basic ethers of 7-oxo-7H-benzo(c) fluorene and a process for their production” (SPOFA, spojene podniky pro zdravotnickou vyrobu, priority 1980, dated 1987).
Numbered stars: 1 amine (or outer) side, 2 acyl side, 3 side chain; on linkers, the order of the positions; unused ones are H or OH. Bridge positions count the residues as written; N and C are the ends. Square brackets hold non-standard residues; d marks the D form. Peptide text beside a SMILES is read from it. I, II: the chains in the order shown. Actinocin(9to1) = Cc1c2oc3c(C)ccc(C(=O)[*:1])c3nc-2c(C(=O)[*:2])c(N)c1=O; NMeV = CN[C@H](C(=O)O)C(C)C; Sar = CNCC(=O)O

How the values were obtained:
[1] = test system: DNA, RNA and protein biosynthesis; experiment: Effect on DNA, RNA and protein biosynthesis (substrate incorporation); assay type: cell-based
From the text: (§1) Thus, by way of exemplification, the IC^50 values (inhibitory concentration which lowered the initial rate of ^14 C incorporation to 50% of control) are shown in Table VI, below (Yoshida's Tumor, (U-^14 C) amino acid mixture)
The foregoing data clearly indicate that the compounds of the invention are potent inhibitors of DNA, RNA and protein biosynthesis. This is of significance because the suppression of tumor cells in a host is attained by inhibition of the biosynthesis of DNA, RNA and proteins.

[2] = test system: La leukaemia; experiment: Effect on course of transplanted La leukaemia in mice; assay type: in vivo, mouse (C57 Bl)
From the text: (§2) The therapeutic effect of the described compounds on transplanted tumors in experimental animals is shown in Tables 1-3, on the following five pages.
(§3) &=statistically significant differences versus control at P=0.05
La: La leukaemia in mice C57 Bl

[3] = test system: Kr2: Krebs' ascitic tumor; experiment: Effect on course of transplanted Krebs' ascitic tumor in mice; assay type: in vivo, mouse (H); conditions: p.o. 2×150 mg/kg, days 1,8, significant (&)
From the text: as §2, §3
Kr2 : Krebs' ascitic tumor in H mice

[4] = test system: EST: Ehrlich's solid tumor; experiment: Effect on course of transplanted Ehrlich's solid tumor in mice; assay type: in vivo, mouse (H); conditions: days 5,7,9,12; for Relative tumour size (% of control value): assessed day 14
From the text: as §2, §3
EST: Ehrlich's solid tumor in H mice

[5] = test system: Sa37 ascitic tumor; experiment: Effect on course of transplanted Sa37 ascitic tumor in mice; assay type: in vivo, mouse (H); conditions: p.o. 3×75 mg/kg, days 1,4,7
From the text: as §2, §3
Sa37 : Ascitic tumors in H mice

[6] = test system: Yoshida's Tumor; experiment: Inhibition of incorporation of labelled substrates in Yoshida's tumor; assay type: cell-based; conditions: Rattus norvegicus, (U-14C) amino acid mixture, Table VI, read-out: IC50 (concentration lowering initial rate of 14C incorporation to 50% of control)
From the text: Tumor growth may be observed clinically or in experiments in vivo, that is, with experimental animals, or in vitro, for example, in tissue cultures prepared from tumors. Assessment of tumor growth may be effected by measuring the weight of the tumor mass or, more effectively, by measuring the radioactivity after incorporation therein of certain substances of natural origin such as amino acids, adenine, thymidine and the like labelled with radioactive atoms such as ^14 C, ^3 H, etc.
as §1
The ^IC 50 values of compound 13468 are also shown in Table VII with varying substrates.

[7] = test system: L1210 leukaemia; experiment: Effect on course of transplanted L1210 leukaemia in mice; assay type: in vivo, mouse (hybrid DBA/H); conditions: days 1;5;8;12;15;19
From the text: as §2, §3
L1210 : Leukaemia growing in the form of ascitic tumors in hybrid DBA/H mice

[8] = test system: Yoshida's ascitic tumor; experiment: Effect on course of transplanted Yoshida's ascitic tumor in rats; assay type: in vivo, rat (Wistar); conditions: for % of animals surviving day 35 after transplantation: control K = 0%
From the text: as §2, §3
Y: Yoshida's ascitic tumor in Wistar rats

[9] = test system: HK: solid tumors, originally spontaneous mammary-gland adenocarcinoma; experiment: Effect on course of transplanted HK solid mammary-gland adenocarcinoma in mice; assay type: in vivo, mouse (H); conditions: for Relative tumour size (% of control value): assessed day 14
From the text: as §2, §3
HK: Solid tumors, originally spontaneous mammary-gland adenocarcinoma in H mice

[10] = Acute toxicity in mice; conditions: mouse, in vivo, sc; subcutaneously; mice S, males 22-24 gram
From the text: The anti-tumor compounds described herein have also been studied from the standpoint of toxicity and the conclusion drawn that they are not toxic to mammalian hosts. The toxicological data set forth in Table IX, below, supports this conclusion.

[11] = p.o. 4×100 mg/kg, significant (&)
[12] = o. (oral) 3×50 mg/kg, days 1,4,8, significant (&)
[13] = o. (oral) 3×75 mg/kg, days 1,4,8, significant (&)
[14] = p.o. 2×150 mg/kg, days 5,12, significant (&)
[15] = p.o. 4×100 mg/kg, days 5,7,9,12, significant (&)

Structure (SMILES): Nc1ccn([C@@H]2O[C@H](CO)[C@@H](O)[C@@H]2O)c(=O)n1 [Cytosine arabinoside]
- IC50 ([1]; substrate (thymine-U-14C)-thymidine): 2 µM
- IC50 ([1]; substrate L-(U-14)amino-acid): 430 µM

Structure (SMILES): CN(C)CCCOc1cc2c(c3ccccc13)-c1ccccc1C2=O.Cl [compound 13466, 5-(3-Dimethylaminopropoxy)-7-oxo-7H-benzo(c) fluorene hydrochloride]
- Survival time of animals with respect to median ([2]; s.c. 1×200 mg/kg, day 3 after transplantation, significant vs control (&, P=0.05)): 113%
- Survival time of animals with respect to median ([2]; s.c. 1×250 mg/kg, day 3, significant (&)): 500%
- Relative tumour size (% of control value) ([3]; assessed day 10): 62%
- Survival time of animals with respect to geom. mean [3]: 128%
- Relative tumour size (% of control value) ([4]; p.o. 4×50 mg/kg, marked ^): 77%
- Survival time of animals with respect to geom. mean ([4]; p.o. 4×50 mg/kg, significant (&)): 135%
- Relative tumour size (% of control value) [4, 11]: 70%
- Survival time of animals with respect to geom. mean [4, 11]: 134%
- Relative tumour size (% of control value) ([5]; assessed day 10, marked ^): 92%
- Survival time of animals with respect to geom. mean ([5]; significant (&)): 123%
- IC50 [6]: 120 µM
- Survival time of animals with respect to median ([7]; s.c. 6×50 mg/kg, significant (&)): 117%
- Survival time of animals with respect to median ([7]; s.c. 6×75 mg/kg, significant (&)): 142%
- Survival time of animals with respect to median ([7]; s.c. 6×100 mg/kg, significant (&)): 142%
- Survival time of animals with respect to median ([7]; s.c. 6×125 mg/kg, marked ^): 168%
- % of animals surviving day 35 after transplantation [8, 12]: 50%
- Survival time of animals with respect to geom. mean [8, 12]: 152%
- % of animals surviving day 35 after transplantation [8, 13]: 40%
- Survival time of animals with respect to geom. mean [8, 13]: 140%
- Survival time of animals with respect to geom. mean ([8]; o. (oral) 5×100 mg/kg, days 1-5, Table III, significant (&)): 135%
- Survival time of animals with respect to geom. mean ([8]; o. (oral) 5×100 mg/kg, days 1-5, Tables I and II, significant (&)): 135%
- Survival time of animals with respect to geom. mean ([8]; s.c. 5×50 mg/kg, days 1-5, Table III, marked ^): 103%
- Survival time of animals with respect to geom. mean ([8]; s.c. 5×50 mg/kg, days 1-5, Tables I and II, significant (&)): 177%
- Survival time of animals with respect to geom. mean ([9]; o. (oral) 8×50 mg/kg, days 5-10,12,13, Table I, significant (&)): 131%
- Relative tumour size (% of control value) ([9]; o. (oral) 8×50 mg/kg, days 5-10,12,13, Table I): 82%
- Relative tumour size (% of control value) ([9]; o. (oral) 8×100 mg/kg, days 5-10,12,13): 76%
- Survival time of animals with respect to geom. mean ([9]; o. (oral) 8×100 mg/kg, days 5-10,12,13, significant (&)): 112%
- Relative tumour size (% of control value) [9, 14]: 65%
- Survival time of animals with respect to geom. mean [9, 14]: 123%
- Relative tumour size (% of control value) [9, 15]: 48%
- Survival time of animals with respect to geom. mean [9, 15]: 125%
- Survival time of animals with respect to geom. mean ([9]; p.o. 8×50 mg/kg, days 5-10,12,13, Table III, marked ^): 102%
- Relative tumour size (% of control value) ([9]; p.o. 8×50 mg/kg, days 5-10,12,13, Table III, significant (&)): 73%
- Survival time of animals with respect to geom. mean ([9]; s.c. 8×50 mg/kg, days 5-10,12,13, Table I, significant (&)): 121%
- Survival time of animals with respect to geom. mean ([9]; s.c. 8×50 mg/kg, days 5-10,12,13, Table III, marked ^): 107%
- Relative tumour size (% of control value) ([9]; s.c. 8×50 mg/kg, days 5-10,12,13, Table I): 66%
- Relative tumour size (% of control value) ([9]; s.c. 8×50 mg/kg, days 5-10,12,13, Table III, significant (&)): 58%
- LD50 [10]: 320 mg/kg

Structure (SMILES): Cc1c2oc3c(C)ccc(C(=O)N[C@@H]4C(=O)N[C@H](C(C)C)C(=O)N5CCC[C@H]5C(=O)N(C)CC(=O)N(C)[C@@H](C(C)C)C(=O)O[C@@H]4C)c3nc-2c(C(=O)N[C@@H]2C(=O)N[C@H](C(C)C)C(=O)N3CCC[C@H]3C(=O)N(C)CC(=O)N(C)[C@@H](C(C)C)C(=O)O[C@@H]2C)c(N)c1=O [Actinomycin D] (I: T[dV]P[Sar][NMeV] / II: T[dV]P[Sar][NMeV]; ester I:1-I:C, II:1-II:C; linker I:N-II:N via Actinocin(9to1))
- IC50 ([1]; substrate (6-3H)uridine): 1.7 µg/mL
